From ChEMBL document CHEMBL4482302, “Inhibitors of rac1 and uses thereof for inducing bronchodilatation” (2018) come the findings set out here.

Assay [1] concerns the target Ras-related C3 botulinum toxin substrate 1 (Mus musculus) (UniProt P63001). Kind of assay: Inhibition of Rac1 in mouse NIH/3T3 cells assessed as reduction in Rac activator-stimulated cell migration incubated for 24 hrs. In kind it is cell-based.
Assay [2] has the same target. Kind of assay: Inhibition of Rac1 activation in mouse NIH/3T3 cells lysates pre-incubated for 1 hr before addition of Rac activator stimulation by immunoblot analysis based pull-down assay. As to conditions: Lysate. The assay is classed as subcellular. In general terms: Immunoblotting shows a protein as a band on a membrane.
Assay [3] shares this target. Kind of assay: Inhibition of Rac1 in mouse NIH/3T3 cells assessed as reduction in Rac activator-stimulated membrane ruffling. In kind it is cell-based.
For assay [4] the target is unchanged. Kind of assay: Inhibition of Rac1 in mouse NIH/3T3 cells assessed as reduction in Rac activator-stimulated cell adhesion measured every 5 mins for 6 hrs by xCELLigence assay. In kind it is cell-based.
The target in assay [5] is Ras-related C3 botulinum toxin substrate 1 (Mus musculus, UniProt P63001). Kind of assay: Inhibition of Rac1 activation in mouse NIH/3T3 cells lysates pre-incubated for 1 hr before addition of Rac activator stimulation by immunoblot analysis based pull-down assay relative to control. In kind it is subcellular, Lysate.
The target in assay [6] is Rho-related GTP-binding protein RhoG (Mus musculus) (UniProt P84096). Kind of assay: Inhibition of mouse RhoG assessed as decrease in B-max for GTP-binding on Rac1 by mant-GTP binding kinetics real-time assay.
Sequence of Rho-related GTP-binding protein RhoG (Mus musculus) (P84096 whole entry): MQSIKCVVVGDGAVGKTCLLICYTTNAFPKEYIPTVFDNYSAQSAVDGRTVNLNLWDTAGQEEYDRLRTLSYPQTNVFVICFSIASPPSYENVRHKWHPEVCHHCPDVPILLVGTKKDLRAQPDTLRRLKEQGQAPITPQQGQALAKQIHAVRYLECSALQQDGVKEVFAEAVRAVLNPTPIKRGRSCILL
The test system of another assay is Mus musculus. Kind of assay: Suppression of airway hyperresponsiveness in mouse model of percutaneous sensitization and house dust mite extract intranasal challenge-induced human allergic asthma dosed via nebulization 10 mins before methacholine challenge. The assay is classed as functional, organism-based.
For assay [7], the target named is Ras-related C3 botulinum toxin substrate 1 (Mus musculus) (UniProt P63001). Kind of assay: Inhibition of mouse Rac1 assessed as decrease in B-max for GTP-binding on Rac1 by mant-GTP binding kinetics real-time assay.
Assay [8] concerns the target Transforming protein RhoA (Mus musculus) (UniProt Q9QUI0). Kind of assay: Inhibition of mouse RhoA assessed as decrease in B-max for GTP-binding on Rac1 by mant-GTP binding kinetics real-time assay.
The target of assay [9] is ADP-ribosylation factor 6 (Mus musculus) (UniProt P62331). Kind of assay: Inhibition of mouse Arf6 assessed as decrease in B-max for GTP-binding on Rac1 by mant-GTP binding kinetics real-time assay.
Sequence of ADP-ribosylation factor 6 (Mus musculus) (P62331 whole entry): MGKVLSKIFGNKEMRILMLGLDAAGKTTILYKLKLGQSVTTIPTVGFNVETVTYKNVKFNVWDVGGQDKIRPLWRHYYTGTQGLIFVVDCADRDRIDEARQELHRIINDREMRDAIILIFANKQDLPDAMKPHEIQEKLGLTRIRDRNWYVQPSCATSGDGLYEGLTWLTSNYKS
For assay [10], the target named is Ras-related C3 botulinum toxin substrate 1 (Mus musculus) (UniProt P63001). Kind of assay: Inhibition of Rac1 in mouse airways smooth muscle cells assessed as reduction in methacholine-induced maximal contraction pre-incubated for 1 hrs before methacholine addition.
Assay [11] deals with Ras-related protein Rab-35 (Mus musculus) (UniProt Q6PHN9). Kind of assay: Inhibition of mouse Rab35 assessed as decrease in B-max for GTP-binding on Rac1 by mant-GTP binding kinetics real-time assay.
Sequence of Ras-related protein Rab-35 (Mus musculus) (Q6PHN9 whole entry): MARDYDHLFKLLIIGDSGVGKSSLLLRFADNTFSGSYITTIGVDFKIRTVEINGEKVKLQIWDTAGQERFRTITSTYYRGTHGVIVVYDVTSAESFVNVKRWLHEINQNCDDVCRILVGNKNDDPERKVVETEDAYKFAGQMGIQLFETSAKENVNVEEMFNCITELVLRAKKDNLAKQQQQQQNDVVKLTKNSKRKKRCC
In assay [12] the target is Ras-related C3 botulinum toxin substrate 1 (Mus musculus) (UniProt P63001). Kind of assay: Binding affinity to mouse Rac1 in presence of EDTA by SPR assay.
Assay [13] has as its target Transforming protein RhoA (Mus musculus) (UniProt Q9QUI0). Kind of assay: Binding affinity to mouse RhoA by SPR assay. (SPR reads the build-up and loss of mass on a sensor chip optically.)
Assay [14] concerns the target Ras-related C3 botulinum toxin substrate 2 (Mus musculus) (UniProt Q05144). Kind of assay: Inhibition of mouse Rac2 assessed as decrease in B-max for GTP-binding on Rac1 by mant-GTP binding kinetics real-time assay.
In assay [15] the target is Cell division control protein 42 homolog (Mus musculus) (UniProt P60766). Kind of assay: Binding affinity to mouse Cdc42 by SPR assay.
Sequence of Cell division control protein 42 homolog (Mus musculus) (P60766 whole entry, looked up): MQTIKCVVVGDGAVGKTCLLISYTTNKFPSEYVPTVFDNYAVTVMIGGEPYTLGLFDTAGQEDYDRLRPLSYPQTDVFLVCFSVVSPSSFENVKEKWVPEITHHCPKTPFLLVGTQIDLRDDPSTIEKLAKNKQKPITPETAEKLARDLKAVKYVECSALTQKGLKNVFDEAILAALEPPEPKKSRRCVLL
In assay [16] the target is Ras-related C3 botulinum toxin substrate 1 (Mus musculus) (UniProt P63001). Kind of assay: Binding affinity to mouse Rac1 by SPR assay.

Molecules are shown by their SMILES. pIC50: −log10 of the molar value. Active and inactive are the calls of the source. The rule behind the calls is not given here.

Sequence of Transforming protein RhoA (Mus musculus) (Q9QUI0 whole entry): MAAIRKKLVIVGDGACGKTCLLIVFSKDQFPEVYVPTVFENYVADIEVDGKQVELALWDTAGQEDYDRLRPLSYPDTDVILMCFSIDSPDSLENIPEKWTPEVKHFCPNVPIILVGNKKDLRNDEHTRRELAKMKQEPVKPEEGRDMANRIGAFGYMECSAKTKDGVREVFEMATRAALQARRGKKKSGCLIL

Consider `CCN(CC)CCCC(C)Nc1nc(C)cc(Nc2ccc3nc(C)cc(N)c3c2)n1` (centres undefined), for which the inhibition entry in assay [1], in assay [2] and in assay [4] was “Active” throughout. The inhibition entry in assay [3] was “Dose-dependent effect”.
In the case of `COc1ccccc1NS(=O)(=O)c1ccc(NC(=O)CSc2ccc(C)cc2)cc1`, in [5], the pIC50 – broadly, the IC50 on a negative log10 scale, so that one unit is a factor of ten – is 9.00.
Take `COc1ccc(OC)c(NS(=O)(=O)c2ccc(NC(=O)CCSc3ccc(C)cc3)cc2)c1`: the inhibition result in assay [6], in [8], in assay [9] and in assay [11] was “inactive” each time. Besides, the outcome (in the assay with Mus musculus; in assay [12]; in assay [16]) was Active. For the same molecule, the inhibition result in [1], in assay [7], in assay [2], in assay [4], in assay [10] and in assay [14] was “Active” throughout. Also, in assay [3], the inhibition result is “Dose-dependent effect”. In addition, the negative logarithm of the IC50 (pIC50) in [5] was 9.00. In addition, the result in assay [13] and in assay [15] was inactive.
`COc1ccccc1NS(=O)(=O)c1ccc([N+](=O)[O-])cc1` gave a pIC50 in assay [5] of 9.00.
Same read-out and setting: then `COc1ccc(NS(=O)(=O)c2ccc(NC(=O)CCSc3ccc(C)cc3)cc2)c(OC)c1`, with 7.52.
Same read-out and setting: the result for `COc1ccc(OC)c(NS(=O)(=O)c2ccc(NC(=O)CCOc3ccc(C)cc3)cc2)c1` reads 9.00; that for `COc1ccccc1NS(=O)(=O)c1ccc(NC(=O)CCSc2ccc(C)cc2)cc1`, 9.00.
`C=CC(=O)Nc1ccc(S(=O)(=O)Nc2cc(OC)ccc2OC)cc1` gave a pIC50 in [5] of 10.00.
On the same count and under the same terms, then `COc1cccc(NS(=O)(=O)c2ccc(N)cc2)c1`, with 9.00.
Same read-out and setting: then `COc1ccccc1NS(=O)(=O)c1ccc(N)cc1`, with 9.00.
